The structures appear in SMILES notation. pEC50: −log10 of the molar value. Some results are limits rather than exact numbers.

Data set [1] deals with HT-1080 cells. The data set is described as follows: Cell viability assay in HT-1080 cells, cotreatment with cell-death inhibitors. The class given is cell-based, human. Conditions: HT-1080, 48 h; for EC50: Homo sapiens, read-out: EC50 (μM) of FIN56 + inhbitor.
The subject of data set [2] is HT-1080 cells. The data set can be described thus: Cell viability assay (Alamar Blue), cytotoxicity in HT-1080 cells. It counts as cell-based, human. The settings on record: for pEC50: compound alone, read-out: EC 50. The procedure: (§1) Cell lines and media. In the following example, HT-1080 (Human fibrosarcoma harboring NrasQ61K) cells (obtained from ATCC) were grown in DMEM high-glucose media with 1% non-essential amino acids (Life Technologies) and 10% FBS. 143B cells were grown in DMEM high-glucose media with 1% glutamine and 10% FBS. Calu-1 cells were grown in McCoy's 5A media (Life Technologies) supplemented with 10% FBS. All the cell lines were grown at 37° C. under 5% CO2. Cell lines were not tested for mycoplasma. In addition, the panel of four lung cancer (NCI-H23; SK-Mes-1; Calu6 and A549) were purchased from ATCC. They were cultured according to the ATCC protocol of each cell line. The non-malignant breast epithelial cells (MCF10A) were maintained in DMEM/F12 medium supplemented with 5% horse serum, epidermal growth factor (20 ng/ml), insulin (10 μg/ml), hydrocortisone ([…]), cholera toxin (100 ng/ml), and penicillin/streptomycin.
Cell viability assay. 9,000 cells per 100 μl were seeded in each well in 96-well plates. Lethal compounds were dissolved in DMSO. In the mother plates, DMSO stock of each compound was further diluted with media to create 20 μM or 10 μm as highest concentrations, respectively and a twofold, 9-point dilution series was prepared. Cells were seeded for 24 h and media were replaced by the mother plate drug-dilution media. When ferroptosis inhibitors (for example, 500 nM Ferrostatin-1, 100 μM α-tocopherol, 152 μM deferoxamine) were used in cotreatments with lethal inducers, they were supplemented to cell culture when the lethal compounds were added, and the cells were then incubated for 48 h. When other cell-death-modulating compounds (100 nM sodium selenite) were used in cotreatments, they were supplemented to cell culture for 24 h before lethal compounds were added to cell culture, after which cells were further incubated for 48 h at 37° C. under 5% CO2. On the day of the viability measurement, we added 25 μl per well of 50% Alamar Blue diluted in media (Life Technologies) and further incubated the cells at 37° C. for 6 h. Fluorescence intensity (excitation/emission: 540/590) was measured with a Victor 3 plate reader (PerkinElmer), and the normalized viability was calculated as VL=(IL−I0)/(IV−I0), where VL is the normalized viability, I0 is the raw fluorescence intensities from the wells containing media, IV is the cells treated with a vehicle (negative control), and IL is the cells with the lethal compound (L), respectively. The viability was typically measured in at least biological duplicate. A representative dose-response curve, the mean and standard error of normalized viability from one replicate were plotted.
Statistical analysis and data visualization. Dose-response curve plotting and EC50 computation were performed with Prism 6.0c (GraphPad Software).
Various compounds were selected for analysis of their cytotoxicity in HT-1080 cells according to the procedure described above.

The test system of the next data set is NCI-H23 cells. The data set can be described thus: Cell viability assay, cytotoxicity in NCI-H23 cells. It counts as cell-based. Conditions: NCI-H23 cells, 48 hours. The procedure: as §1
Cell viability assay. 9,000 cells per 100 μl were seeded in each well in 96-well plates. Lethal compounds were dissolved in DMSO. In the mother plates, DMSO stock of each compound was further diluted with media to create 20 μM or 10 μm as highest concentrations, respectively and a twofold, 9-point dilution series was prepared. […] Fluorescence intensity (excitation/emission: 540/590) was measured with a Victor 3 plate reader (PerkinElmer), and the normalized viability was calculated as VL=(IL−I0)/(IV−I0), where VL is the normalized viability, I0 is the raw fluorescence intensities from the wells containing media, IV is the cells treated with a vehicle (negative control), and IL is the cells with the lethal compound (L), respectively. The viability was typically measured in at least biological duplicate. […]
In addition, the compound TKD1079 was also analyzed for cytotoxicity in four different lung cancer cell lines according to the procedure described above. […] Cytotoxicity was also determined against MCF10A non-malignant breast epithelial cell, NCI-H1299 human non-small cell lung carcinoma cell line, and Beas-2B epithelial cells isolated from normal human bronchial epithelium.

The mark [3] stands for this setting: Homo sapiens, HT-1080, HT-1080 cells.

For `O=S(=O)(NC1CCCCC1)c1ccc2c(c1)C(=NO)c1cc(S(=O)(=O)NC3CCCCC3)ccc1-2` [FIN56, reference compound], the “Slectivity in fold [EC50 (FIN56 + inhibitor)/ EC50 inhbitor]” value in the data set on HT-1080 cells [1] (DFOM (152 μM)) is greater than 60 fold; in the data set with HT-1080 cells [1] (Fer 1 (500 nM)) it was greater than 90 fold; in the data set with HT-1080 cells [1] (ZVAD 45 μM), 0.6 fold; with HT-1080 cells [1] (aToc (100 μM)) it was 34.8 fold. Moreover, the “blocking of the compound's lethality by the apoptosis inhibitor pathway (ZVAD)” value in the data set with HT-1080 cells [1] (ZVAD 45 μM) was “did not block”. The 50% effective concentration (EC50) in the data set with HT-1080 cells [1] (cotreated with DFOM (152 μM)) was greater than 20 µM; with HT-1080 cells [1] (cotreated with Fer 1 (500 nM)), greater than 30 µM; in the data set with HT-1080 cells [1] (cotreated with ZVAD (45 μM)), 0.196 µM; in the data set with HT-1080 cells [1] (cotreated with aToc (100 μM)), 11.5 µM; in the data set on HT-1080 cells [2] (Homo sapiens, HT-1080, 48 h, HT-1080 cells, 48 hour incubation, no inhibitor, read-out: EC50 (μM) of FIN56), 0.328 µM. The pEC50 in the data set with HT-1080 cells [2] (HT-1080 cells) is 6.49; with HT-1080 cells [2] (setting [3]), 6.48.

As to `N#CC1c2cc(S(=O)(=O)NC3CCCCC3)ccc2-c2ccc(S(=O)(=O)NC3CCCCC3)cc21` [MH1013, 9-cyano-N^2,N^7-dicyclohexyl-9H-fluorene-2,7-disulfonamide], the pEC50 with HT-1080 cells [2] (setting [3]) is 4.87.

As to `C#CCON=C1c2cc(S(=O)(=O)NC3CCCCC3)ccc2-c2ccc(S(=O)(=O)NC3CCCCC3)cc21` [TKD1020, N^2,N^7-dicyclohexyl-9-((prop-2-yn-1-yloxy)imino)-9H-fluorene-2,7-disulfonamide], the pEC50 in the data set on HT-1080 cells [2] (setting [3]) was 4.97.

On to `O=S(=O)(NC12CC(C1)C2)c1ccc2c(c1)C(=NO)c1cc(S(=O)(=O)NC34CC(C3)C4)ccc1-2` [TKD1026, N^2,N^7-di(bicyclo[1.1.1]pentan-1-yl)-9-(hydroxyimino)-9H-fluorene-2,7-disulfonamide], for which the pEC50 with HT-1080 cells [2] (HT-1080 cells) was 5.77; with HT-1080 cells [2] (setting [3]), greater than 5.70.

In the case of `O=S(=O)(NCCF)c1ccc2c(c1)C(=NO)c1cc(S(=O)(=O)NCCF)ccc1-2` [TKD1027, N^2,N^7-bis(2-fluoroethyl)-9-(hydroxyimino)-9H-fluorene-2,7-disulfonamide], the pEC50 with HT-1080 cells [2] (setting [3]) is less than 4.70.

Take `CNS(=O)(=O)c1ccc2c(c1)C(=NO)c1cc(S(=O)(=O)NC)ccc1-2` [TKD1034A, 9-(hydroxyimino)-N^2,N^7-dimethyl-9H-fluorene-2,7-disulfonamide]: the pEC50 in the data set with HT-1080 cells [2] (setting [3]) is 4.92.

Regarding `CCC(CC)NS(=O)(=O)c1ccc2c(c1)C(=NO)c1cc(S(=O)(=O)NC(CC)CC)ccc1-2` [TKD1034D, 9-(hydroxyimino)-N^2,N^7-di(pentan-3-yl)-9H-fluorene-2,7-disulfonamide], the pEC50 with HT-1080 cells [2] (setting [3]) was 6.29.

Take `CCCNS(=O)(=O)c1ccc2c(c1)C(=NO)c1cc(S(=O)(=O)NCCC)ccc1-2` [TKD1034E, 9-(hydroxyimino)-N^2,N^7-dipropyl-9H-fluorene-2,7-disulfonamide]: the pEC50 in the data set with HT-1080 cells [2] (setting [3]) was 5.25.

For the molecule `C#CC1(O)c2cc(S(=O)(=O)NC3CCCCC3)ccc2-c2ccc(S(=O)(=O)NC3CCCCC3)cc21` [TKD1066, N^2,N^7-dicyclohexyl-9-ethynyl-9-hydroxy-9H-fluorene-2,7-disulfonamide], in the data set with HT-1080 cells [2] (setting [3]), the pEC50 was 5.34.

On to `O=S(=O)(NC1CCCCC1)c1ccc2c(c1)C(Br)c1cc(S(=O)(=O)NC3CCCCC3)ccc1-2` [TKD1100, 9-bromo-N2,N^7-dicyclohexyl-9H-fluorene-2,7-disulfonamide], for which the pEC50 in the data set with HT-1080 cells [2] (setting [3]) was 5.45.

For the molecule `O=S(=O)(NC1C2CC3CC(C2)CC1C3)c1ccc2c(c1)C(=NO)c1cc(S(=O)(=O)NC3C4CC5CC(C4)CC3C5)ccc1-2` (stereo not drawn) [TKD2043, N^2,N^7-di(adamantan-2-yl)-9-(hydroxyimino)-9H-fluorene-2,7-disulfonamide], the “cytotoxicity (cell viability) in NCI-H23 cells” value in the data set on NCI-H23 cells is “significantly more potent than TKD1079 and FIN56”.

As for `CC(C)CNS(=O)(=O)c1ccc2c(c1)C(=NO)c1cc(S(=O)(=O)NCC(C)C)ccc1-2` [TKD10416, 9-(hydroxyimino)-N^2,N^7-diisobutyl-9H-fluorene-2,7-disulfonamide], the pEC50 in the data set with HT-1080 cells [2] (setting [3]) is 5.36.

One may read the EC50 as the concentration needed to bring the measured effect to its halfway point.

These data come from US11932599B2, “Ferroptosis inducing compound, compositions comprising the same, and methods of inducing ferroptosis” (UNIVERSITY OF MASSACHUSETTS, priority 2021, dated 2024).
